Experimental data taken from PubChem BioAssay AID248 (DTP/NCI, 2004).
Where “and” joins values, the source holds several entries; their conditions need not be identical. Equal values may be shown once. Inconclusive results and toxic doses are left out. No stated cut-off is given here; in the data, active means T/C of 150% or more; inactive means T/C below 125%.

System: L1210 leukemia ip in BDF1 mice, survival T/C
Assay: NCI In Vivo Anticancer Drug Screen. Data for tumor model L1210 Leukemia (intraperitoneal) in B6D2F1 (BDF1) mice
Details: endpoint: mean survival time, higher = longer survival
How it was run: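 Transplanted-tumor mice were given test agent; controls received vehicle only. Survival readings from the two groups were divided (treated over control).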

[1] = dose: 75.0 mg/kg/injection, schedule: Q01DX001 (ip), vehicle: saline
[2] = dose: 50.0 mg/kg/injection, schedule: Q01DX001 (ip), vehicle: saline
[3] = dose: 100.0 mg/kg/injection, schedule: Q01DX001 (ip), vehicle: saline
[4] = dose: 200.0 mg/kg/injection, schedule: Q01DX001 (ip), vehicle: saline
[5] = dose: 400.0 mg/kg/injection, schedule: Q01DX001 (ip), vehicle: saline
[6] = dose: 100.0 mg/kg/injection, schedule: Q01DX009 (ip), vehicle: saline with Tween-80
[7] = dose: 200.0 mg/kg/injection, schedule: Q01DX009 (ip), vehicle: saline with Tween-80
[8] = dose: 400.0 mg/kg/injection, schedule: Q01DX009 (ip), vehicle: saline with Tween-80
[9] = dose: 100.0 mg/kg/injection, schedule: Q01DX009 (ip), vehicle: saline
[10] = dose: 200.0 mg/kg/injection, schedule: Q01DX009 (ip), vehicle: saline
[11] = dose: 100.0 mg/kg/injection, schedule: Q01DX001 (ip), vehicle: saline with Tween-80
[12] = dose: 200.0 mg/kg/injection, schedule: Q01DX001 (ip), vehicle: saline with Tween-80
[13] = dose: 400.0 mg/kg/injection, schedule: Q01DX001 (ip), vehicle: saline with Tween-80
[14] = dose: 100.0 mg/kg/injection, schedule: Q04DX003 (ip), vehicle: saline with Tween-80
[15] = dose: 200.0 mg/kg/injection, schedule: Q04DX003 (ip), vehicle: saline with Tween-80
[16] = dose: 400.0 mg/kg/injection, schedule: Q04DX003 (ip), vehicle: saline with Tween-80
[17] = dose: 100.0 mg/kg/injection, schedule: Q01DX009 (ip), vehicle: Klucel (hydroxypropylcellulose) (HPC)
[18] = dose: 100.0 mg/kg/injection, schedule: Q04DX002 (ip), vehicle: Klucel (hydroxypropylcellulose) (HPC)
[19] = dose: 200.0 mg/kg/injection, schedule: Q01DX009 (ip), vehicle: Klucel (hydroxypropylcellulose) (HPC)
[20] = dose: 400.0 mg/kg/injection, schedule: Q01DX009 (ip), vehicle: Klucel (hydroxypropylcellulose) (HPC)
[21] = dose: 200.0 mg/kg/injection, schedule: Q04DX002 (ip), vehicle: Klucel (hydroxypropylcellulose) (HPC)
[22] = dose: 400.0 mg/kg/injection, schedule: Q04DX002 (ip), vehicle: Klucel (hydroxypropylcellulose) (HPC)
[23] = dose: 100.0 mg/kg/injection, schedule: Q04DX003 (ip), vehicle: saline
[24] = dose: 200.0 mg/kg/injection, schedule: Q04DX003 (ip), vehicle: saline
[25] = dose: 400.0 mg/kg/injection, schedule: Q04DX003 (ip), vehicle: saline
[26] = dose: 100.0 mg/kg/injection, schedule: Q04DX002 (ip), vehicle: saline with Tween-80
[27] = dose: 200.0 mg/kg/injection, schedule: Q04DX002 (ip), vehicle: saline with Tween-80
[28] = dose: 400.0 mg/kg/injection, schedule: Q04DX002 (ip), vehicle: saline with Tween-80
[29] = dose: 100.0 mg/kg/injection, schedule: Q04DX003 (ip), vehicle: Klucel (hydroxypropylcellulose) (HPC)
[30] = dose: 200.0 mg/kg/injection, schedule: Q04DX003 (ip), vehicle: Klucel (hydroxypropylcellulose) (HPC)
[31] = dose: 400.0 mg/kg/injection, schedule: Q04DX003 (ip), vehicle: Klucel (hydroxypropylcellulose) (HPC)

Measured: T/C

O=S1CCCO1 (configuration not stated)
inactive: dose: 4.7 mg/kg/injection, schedule: Q01DX009 (ip), vehicle: saline 100 % of control | dose: 9.4 mg/kg/injection, schedule: Q01DX009 (ip), vehicle: saline 96 % of control | dose: 18.8 mg/kg/injection, schedule: Q01DX009 (ip), vehicle: saline 93 % of control | [1] 98 % of control

Cn1c(=O)c2c(nc(CCCC3CCCCC3)n2C)n(C)c1=O
inactive: [2] 103 % of control | [3] 97 % of control | [4] 111 % of control | [5] 103 % of control

CC1=C(N2CCN(c3ccc(Cl)cc3)CC2)C(=O)CC(C)(C)C1
inactive: [3] 97 % of control | [4] 101 % of control | [5] 103 % of control

COC(=N)Cc1ccc(OC)c(OC)c1
inactive: [6] 94 % of control | [7] 89 % of control | [8] 92 % of control

CC1=NN(c2ccccc2)/C(=N/N=C(N)N)C1CC1C(C)=NN(c2ccccc2)/C1=N/N=C(N)N (configuration not stated)
inactive: dose: 15.0 mg/kg/injection, schedule: Q01DX Z (ip), vehicle: carboxymethylcellulose (CMC) 102 % of control | dose: 30.0 mg/kg/injection, schedule: Q01DX Z (ip), vehicle: carboxymethylcellulose (CMC) 97 % of control | dose: 60.0 mg/kg/injection, schedule: Q01DX Z (ip), vehicle: carboxymethylcellulose (CMC) 100 % of control and 102 % of control | dose: 120.0 mg/kg/injection, schedule: Q01DX Z (ip), vehicle: carboxymethylcellulose (CMC) 95 % of control and 96 % of control | dose: 240.0 mg/kg/injection, schedule: Q01DX Z (ip), vehicle: carboxymethylcellulose (CMC) 91 % of control

O=C(C=C(C(F)(F)F)C(F)(F)F)c1ccccc1
inactive: [3] 100 % of control | [9] 91 % of control | [4] 94 % of control | [10] 100 % of control | [5] 109 % of control

CC(C)CCCC(C)C1CCC2C3CCC(CCO)C(C)(CCO)C3CCC12C (configuration not stated)
inactive: [11] 97 % of control | [12] 92 % of control | [13] 94 % of control

CCOC(=O)NN(C)c1c(C)cccc1C
inactive: dose: 50.0 mg/kg/injection, schedule: Q01DX001 (ip), vehicle: Klucel (hydroxypropylcellulose) (HPC) 96 % of control | dose: 100.0 mg/kg/injection, schedule: Q01DX001 (ip), vehicle: Klucel (hydroxypropylcellulose) (HPC) 106 % of control | dose: 200.0 mg/kg/injection, schedule: Q01DX001 (ip), vehicle: Klucel (hydroxypropylcellulose) (HPC) 104 % of control

O=C(O)c1cccc(F)c1O
inactive: [3] 97 % of control | [4] 97 % of control

CNC(=S)N/N=C(\c1ccccc1)c1ccccn1
inactive: [11] 95 % of control | [6] 100 % of control | [14] 104 % of control | [12] 106 % of control | [7] 102 % of control | [15] 95 % of control | [13] 104 % of control | [8] 102 % of control | [16] 98 % of control

COc1ccccc1/C=C(\C#N)c1cccc2ccccc12
inactive: dose: 25.0 mg/kg/injection, schedule: Q04DX002 (ip), vehicle: Klucel (hydroxypropylcellulose) (HPC) 118 % of control | dose: 50.0 mg/kg/injection, schedule: Q04DX002 (ip), vehicle: Klucel (hydroxypropylcellulose) (HPC) 93 % of control | [17] 94 % of control | [18] 107 % of control | [19] 89 % of control | [20] 90 % of control

COc1nc(OC)n(C)c(=O)c1OP(=O)(OC)OC
inactive: [2] 98 % of control | [3] 93 % of control | [4] 93 % of control | [5] 95 % of control

COc1ccc(COC(=O)Nc2cc(OC)ccc2OC)cc1
inactive: [18] 101 % of control | [21] 101 % of control | [22] 107 % of control

O=C(O)/C=C\C(=O)Nc1ccccc1C(=O)O
inactive: [14] 98 % of control | [15] 97 % of control | [16] 111 % of control

COc1ccc(C2Nc3ccccc3NC3CC(C)(C)CC(=O)C32)cc1 (configuration not stated)
inactive: [18] 120 % of control | [21] 98 % of control | [22] 109 % of control

Oc1cc2c(cc1O)C1c3ccc(O)c(O)c3OCC1(O)C2 (configuration not stated)
inactive: [9] 102 % of control | [23] 110 % of control | [10] 104 % of control | [24] 104 % of control | dose: 400.0 mg/kg/injection, schedule: Q01DX009 (ip), vehicle: saline 101 % of control | [25] 102 % of control

CCCC(=O)OCC(=O)c1ccc(-c2ccccc2)cc1
inactive: [3] 96 % of control | [4] 94 % of control | [5] 94 % of control

Nc1ncnc(N)c1NC(=O)c1cccc(F)c1
inactive: [11] 106 % of control | [12] 101 % of control | [13] 102 % of control

CC(NC(=O)C(CO)NC(=O)c1cnc2ccccc2n1)C(=O)OC(C)(C)C (configuration not stated)
inactive: [3] 102 % of control | [4] 102 % of control | [5] 115 % of control

CCOC(=O)C(C(C)=O)C(c1ccc(OCc2ccccc2)c(C)c1)C(C(C)=O)C(=O)OCC (configuration not stated)
inactive: [23] 94 % of control | [24] 94 % of control | [25] 95 % of control

O=c1[nH]c2cc3[nH]c(=O)c(=O)c3cc2c1=O
inactive: [17] 102 % of control | [19] 100 % of control | [20] 100 % of control

CNCC(OC)c1ccc(O)c(O)c1 (configuration not stated)
inactive: [9] 105 % of control | [23] 108 % of control | [10] 105 % of control | [24] 106 % of control | [25] 108 % of control

COc1ccc(C(=O)/C=C/c2cccc3ccccc23)cc1
inactive: [26] 86 % of control | [27] 86 % of control | [28] 86 % of control

Cc1ccc(S(=O)(=O)ON2C(=O)c3cccc4cc([N+](=O)[O-])cc(c34)C2=O)cc1
inactive: [3] 95 % of control | [4] 101 % of control | [5] 104 % of control

CC(c1ccccc1)C(C#N)c1ccccc1 (configuration not stated)
inactive: [17] 97 % of control | [29] 97 % of control | [19] 98 % of control | [30] 92 % of control | [20] 88 % of control | [31] 89 % of control

O=c1c2ccccc2[nH]c(=S)n1-c1cccc(Cl)c1
inactive: [1] 93 % of control | dose: 150.0 mg/kg/injection, schedule: Q01DX001 (ip), vehicle: saline 89 % of control | dose: 300.0 mg/kg/injection, schedule: Q01DX001 (ip), vehicle: saline 91 % of control

CCOC(=O)c1c(-c2ccc([N+](=O)[O-])cc2)c(C#N)n(-c2ccccc2)c1C
inactive: [18] 95 % of control | [21] 92 % of control | [22] 103 % of control

c1ccc(CC2NC2c2ccccc2)cc1 (configuration not stated)
inactive: [18] 92 % of control | [29] 96 % of control | [21] 98 % of control | [30] 96 % of control | [31] 103 % of control

Cc1cc([P+](c2ccccc2)(c2ccccc2)c2ccccc2)c(C)cc1[P+](c1ccccc1)(c1ccccc1)c1ccccc1
inactive: dose: 0.37 mg/kg/injection, schedule: Q04DX003 (ip), vehicle: Klucel (hydroxypropylcellulose) (HPC) 96 % of control | dose: 0.75 mg/kg/injection, schedule: Q04DX003 (ip), vehicle: Klucel (hydroxypropylcellulose) (HPC) 106 % of control | dose: 1.5 mg/kg/injection, schedule: Q04DX003 (ip), vehicle: Klucel (hydroxypropylcellulose) (HPC) 93 % of control | dose: 3.0 mg/kg/injection, schedule: Q04DX003 (ip), vehicle: Klucel (hydroxypropylcellulose) (HPC) 91 % of control

COC(=O)c1ccccc1-n1c(-c2ccc([N+](=O)[O-])cc2)csc1=NC(=O)c1cccc([N+](=O)[O-])c1
inactive: [17] 91 % of control | [18] 92 % of control | [19] 91 % of control | [21] 95 % of control | [20] 88 % of control | [22] 100 % of control

COc1cc(C=O)cc(Br)c1O
inactive: [26] 97 % of control | [27] 93 % of control | [28] 87 % of control
